± gives the expanded uncertainty stated by the source.
Assay: xn = mol fraction of the nth substance listed
Details: Liquid, Vibrating tube method

CCCCCCCCCC [decane] + CCCCCC
Details | mass density [kg/m3]
352.99 K, 19000 kPa, x2 = 0.7524 | 655.43 ± 0.45
352.99 K, 20000 kPa, x2 = 0.0456 | 701.21 ± 0.41
352.99 K, 20000 kPa, x2 = 0.7524 | 656.5 ± 0.46
352.99 K, 21000 kPa, x2 = 0.0456 | 702.11 ± 0.42
352.99 K, 21000 kPa, x2 = 0.7524 | 657.54 ± 0.47
352.99 K, 22000 kPa, x2 = 0.0456 | 702.98 ± 0.42
352.99 K, 22000 kPa, x2 = 0.7524 | 658.56 ± 0.48
352.99 K, 23000 kPa, x2 = 0.0456 | 703.83 ± 0.43
352.99 K, 23000 kPa, x2 = 0.7524 | 659.55 ± 0.49
352.99 K, 24000 kPa, x2 = 0.0456 | 704.67 ± 0.44
352.99 K, 24000 kPa, x2 = 0.7524 | 660.56 ± 0.5
352.99 K, 25000 kPa, x2 = 0.0456 | 705.49 ± 0.45
352.99 K, 25000 kPa, x2 = 0.7524 | 661.49 ± 0.51
353 K, 1000 kPa, x2 = 0.2185 | 673.09 ± 0.26
353 K, 2000 kPa, x2 = 0.2185 | 674.25 ± 0.27
353 K, 3000 kPa, x2 = 0.2185 | 675.39 ± 0.28
353 K, 4000 kPa, x2 = 0.2185 | 676.51 ± 0.28
353 K, 5000 kPa, x2 = 0.2185 | 677.65 ± 0.29
353 K, 6000 kPa, x2 = 0.2185 | 678.75 ± 0.3
353 K, 7000 kPa, x2 = 0.2185 | 679.82 ± 0.31
353 K, 8000 kPa, x2 = 0.2185 | 680.92 ± 0.32
353 K, 9000 kPa, x2 = 0.2185 | 681.98 ± 0.32
353 K, 10000 kPa, x2 = 0.2185 | 683.03 ± 0.33
353 K, 11000 kPa, x2 = 0.2185 | 684.07 ± 0.34
353 K, 12000 kPa, x2 = 0.2185 | 685.08 ± 0.35
353 K, 13000 kPa, x2 = 0.2185 | 686.09 ± 0.36
353 K, 14000 kPa, x2 = 0.2185 | 687.09 ± 0.37
353 K, 15000 kPa, x2 = 0.2185 | 688.08 ± 0.37
353 K, 16000 kPa, x2 = 0.2185 | 689.03 ± 0.38
353 K, 17000 kPa, x2 = 0.2185 | 689.97 ± 0.39
353 K, 18000 kPa, x2 = 0.2185 | 690.9 ± 0.4
353 K, 19000 kPa, x2 = 0.2185 | 691.79 ± 0.41
353 K, 20000 kPa, x2 = 0.2185 | 692.7 ± 0.42
353 K, 21000 kPa, x2 = 0.2185 | 693.59 ± 0.43
353 K, 22000 kPa, x2 = 0.2185 | 694.47 ± 0.43
353 K, 23000 kPa, x2 = 0.2185 | 695.35 ± 0.44
353 K, 24000 kPa, x2 = 0.2185 | 696.22 ± 0.45
353 K, 25000 kPa, x2 = 0.2185 | 697.07 ± 0.46
353.01 K, 1000 kPa, x2 = 0.4968 | 654.56 ± 0.27
353.01 K, 2000 kPa, x2 = 0.4968 | 655.89 ± 0.28
353.01 K, 3000 kPa, x2 = 0.4968 | 657.2 ± 0.28
353.01 K, 4000 kPa, x2 = 0.4968 | 658.52 ± 0.29
353.01 K, 5000 kPa, x2 = 0.4968 | 659.83 ± 0.3
353.01 K, 6000 kPa, x2 = 0.4968 | 661.12 ± 0.31
353.01 K, 7000 kPa, x2 = 0.4968 | 662.3 ± 0.32
353.01 K, 8000 kPa, x2 = 0.4968 | 663.52 ± 0.33
353.01 K, 9000 kPa, x2 = 0.4968 | 664.66 ± 0.33
353.01 K, 10000 kPa, x2 = 0.4968 | 665.8 ± 0.34
353.01 K, 11000 kPa, x2 = 0.4968 | 666.94 ± 0.35
353.01 K, 12000 kPa, x2 = 0.4968 | 668.05 ± 0.36
353.01 K, 13000 kPa, x2 = 0.4968 | 669.13 ± 0.37
353.01 K, 14000 kPa, x2 = 0.4968 | 670.21 ± 0.38
353.01 K, 15000 kPa, x2 = 0.4968 | 671.26 ± 0.39
353.01 K, 16000 kPa, x2 = 0.4968 | 672.3 ± 0.4
353.01 K, 17000 kPa, x2 = 0.4968 | 673.3 ± 0.41
353.01 K, 18000 kPa, x2 = 0.4968 | 674.32 ± 0.42
353.01 K, 19000 kPa, x2 = 0.4968 | 675.27 ± 0.43
353.01 K, 20000 kPa, x2 = 0.4968 | 676.25 ± 0.43
353.01 K, 21000 kPa, x2 = 0.4968 | 677.22 ± 0.44
353.01 K, 22000 kPa, x2 = 0.4968 | 678.15 ± 0.45
353.01 K, 23000 kPa, x2 = 0.4968 | 679.08 ± 0.46
353.01 K, 24000 kPa, x2 = 0.4968 | 680 ± 0.47
353.01 K, 25000 kPa, x2 = 0.4968 | 680.91 ± 0.48
362.59 K, 1000 kPa, x2 = 0.8991 | 607.57 ± 0.28
362.59 K, 2000 kPa, x2 = 0.8991 | 609.29 ± 0.29
362.59 K, 3000 kPa, x2 = 0.8991 | 610.97 ± 0.3
362.59 K, 4000 kPa, x2 = 0.8991 | 612.62 ± 0.31
362.59 K, 5000 kPa, x2 = 0.8991 | 614.24 ± 0.32
362.59 K, 6000 kPa, x2 = 0.8991 | 615.83 ± 0.33
362.59 K, 7000 kPa, x2 = 0.8991 | 617.37 ± 0.34
362.59 K, 8000 kPa, x2 = 0.8991 | 618.92 ± 0.35
362.59 K, 9000 kPa, x2 = 0.8991 | 620.4 ± 0.4
362.59 K, 10000 kPa, x2 = 0.8991 | 621.89 ± 0.37
362.59 K, 11000 kPa, x2 = 0.8991 | 623.32 ± 0.38
362.59 K, 12000 kPa, x2 = 0.8991 | 624.72 ± 0.39
362.59 K, 13000 kPa, x2 = 0.8991 | 626.12 ± 0.4
362.59 K, 14000 kPa, x2 = 0.8991 | 627.49 ± 0.41
362.59 K, 15000 kPa, x2 = 0.8991 | 628.8 ± 0.4
362.59 K, 16000 kPa, x2 = 0.8991 | 630.11 ± 0.44
362.59 K, 17000 kPa, x2 = 0.8991 | 631.37 ± 0.45
362.59 K, 18000 kPa, x2 = 0.8991 | 632.62 ± 0.46
362.59 K, 19000 kPa, x2 = 0.8991 | 633.83 ± 0.47
362.59 K, 20000 kPa, x2 = 0.8991 | 635.04 ± 0.48
362.59 K, 21000 kPa, x2 = 0.8991 | 636.21 ± 0.49
362.59 K, 22000 kPa, x2 = 0.8991 | 637.35 ± 0.5
362.59 K, 23000 kPa, x2 = 0.8991 | 638.45 ± 0.51
362.59 K, 24000 kPa, x2 = 0.8991 | 639.52 ± 0.53
362.59 K, 25000 kPa, x2 = 0.8991 | 640.65 ± 0.54
362.91 K, 1000 kPa, x2 = 0.0456 | 674.5 ± 0.26
362.91 K, 2000 kPa, x2 = 0.0456 | 675.7 ± 0.27
362.91 K, 3000 kPa, x2 = 0.0456 | 676.88 ± 0.27
362.91 K, 4000 kPa, x2 = 0.0456 | 678.04 ± 0.28
362.91 K, 5000 kPa, x2 = 0.0456 | 679.18 ± 0.29
362.91 K, 6000 kPa, x2 = 0.0456 | 680.32 ± 0.3

Reference: the NIST ThermoML archive (doi:10.1021/je200721d)
